# Patent publication US7262151B2, “Methods and compositions for production of lipo-chito oligosaccharides by rhizobacteria” (McGill University, priority 2001, dated 2007)
# Where two headings read alike, the source gives them in different places.
# What was measured:
# Format in all cases: cell-based
# [1] = tested on: nod genes in Bradyrhizobium japonicum strain USDA31; test: nod gene induction, β-galactosidase assay, strain USDA31 (GG1)
# Procedure: (§1) Bacteria were grown in yeast extract mannitol (YEM) medium (mannitol 10.0 g, K2HPO4 0.5 g, MgSO4.7H2O 0.2 g, NaCl 0.1 g, and yeast extract 0.4 g dissolved in 1000 mL of dd H2O). In order to ensure the maintenance of the strains, tetracycline was added to the bacterial cultures at a concentration of 20 mg 1^−1. One hundred mL cultures of each strain, in 250 mL flasks, were shaken at 150 rev min^−1 at 30° C. for 3-5 days and then subcultured into 400 mL of fresh medium in 1000 mL flasks. The cultures were incubated until the OD620 reached 0.2-0.3. The cultures were then divided into 5 mL tubes (sterilized).
# (§2) Stock solutions of various inducers: genistein, salicylic acid and acetylsalicylic acid made in methanol and linolenic, linoleic, and jasmonic acid and methyl jasmonate were made in ethanol, and an appropriate amount of these inducers was added into the tubes before addition of bacterial culture. In the tubes, the final concentration of all the inducers was maintained as 5, 10, 25, 50 and 100 μM. Tubes were collected after 18 h of incubation and stored at −20° C. until the β-galactosidase activity was measured. Genistein (4′,5,7, trihydroxyisoflavone, purity 98%,), linolenic acid (9,12,15-Octadecatrienoic acid, purity 99%), linoleic acid (cis-9, cis-12-Octadecadienoic acid, purity 99%), jasmonic acid (±Jasmonic acid, C12H18O3) and salicylic acid (2-hydroxybenzoic acid, purity 99.0%) were obtained from Sigma, while acetylsalicylic acid (C9H8O4, 99% purity) was obtained from Acros and methyl jasmonate (95% purity) was obtained from Aldrich Chemical Company, Inc.
# (§3) β-galactosidase is an enzyme which hydrolyzes β-D-galactosides. The activity of this enzyme can easily be measured with colorless substrates, which upon hydrolysis produce colored products. O-nitrophenyl-β-galactoside (ONPG) is a colorless compound and is converted to galactose and O-nitrophenol in the presence of β-galactosidase. The O-nitrophenol is yellow and can be measured by its absorption at 420 nm. In the present study, nod gene expression was indirectly measured by β-galactosidase activity following the method of Miller (1972) as modified by Stachel et al, (1985). Briefly, 0.5 mL culture was mixed with 2×Z buffer (Na2HPO4.7H2O, 16.1 g, NaH2PO4.H2O, 5.5 g, KCl 0.75 g, MgSO4.7H2O 0.246 g, β-mercaptoethanol 2.7 g, pH 7.0 dissolved in 500 mL water) and 40 μL toluene and vortexed for 10 seconds. The culture was then incubated in a water bath at 37° C. for 30 minutes and then 0.2 mL of O-nitrophenyl β-D-galactopyranoside (ONPG) was added at a concentration of 4 mg mL^−1. The cultures were incubated again in the water bath until the color of the culture changed. The reaction time was recorded and the reaction was stopped with 1M Na2CO3. After centrifugation at 10,000 rpm for 4 minutes, spectrophotometric reading at OD420 and OD600 were taken and the β-galactosidase activity was measured (β-galactosidase activity=OD420*1000/OD600*T*V, where T is the reaction time and V is the volume of the bacterial culture used for enzyme assay).
# (§4) The effect of 0-100 μM concentrations of each of acetylsalicylic acid, salicylic acid, jasmonic acid, methyl jasmonate, and genistein, on induction of nod gene expression in Bradyrhizobium japonicum strains USDA31, USDA76, USDA121, and USDA3, was evaluated in accordance with the β-galactosidase assay of Experiment 1 in Example 1 above.
# [2] = tested on: nod genes in Bradyrhizobium japonicum strain USDA76; test: nod gene induction, β-galactosidase assay, strain USDA 76 (GG2); conditions: control 411.8 ± 26.8
# Procedure: as §1, §2, §3, §4
# [3] = tested on: nod genes in Bradyrhizobium japonicum strain USDA121; test: nod gene induction, β-galactosidase assay, strain USDA121 (GG3); conditions: control 476.8 ± 86.6
# Procedure: as §1, §2, §3, §4
# [4] = tested on: nod genes in Bradyrhizobium japonicum strain USDA3; conditions: for inhibitory or inducing activity in combinations (β-galactosidase assay): 25 and 50 μM with JA, MeJA and genistein (5 μM), FIGS. 3, 4, and 5; for nod gene induction (β-galactosidase activity): USDA3 (GG4), control 362 ± 25; for induction of nod genes (β-galactosidase activity vs control without inducer), in words: all concentrations, FIG. 1; for expression of nod genes (β-galactosidase assay), in words: 5-100 μM tested, FIG. 6; for nod gene induction at optimum concentration compared with optimum JA and MeJA concentrations / optimum concentration for nod gene induction: USDA3, β-galactosidase assay
# Procedure: Bradyrhizobium japonicum strain USDA3, harboring plasmid GG4, was used in the experiment. Plasmid GG4 contains a translational fusion between B. japonicum nod Y open-reading frame and lac Z of Escherichia coli.
# as §1, §2, §3
# The experiment was designed in a randomized complete block design (RCBD) with three replicates. […] Data are shown from the second experiment. Statistical analysis of the data was done with analysis of variance using the Statistical Analysis System computer package (SAS Institute, 1988). Comparisons among treatment means were made with an ANOVA protected LSD at the 0.05 level of statistical significance.
# [5] = 5 μM, control without inducer 522.6 ± 15.9
SMILES,"nod gene induction (β-galactosidase activity) [1, 5]","nod gene induction (β-galactosidase activity) ([1]; 10 μM, control 522.6 ± 15.9)","nod gene induction (β-galactosidase activity) ([1]; 25 μM, control 522.6 ± 15.9)","nod gene induction (β-galactosidase activity) ([1]; 50 μM, control 522.6 ± 15.9)","nod gene induction (β-galactosidase activity) ([1]; 100 μM, control 522.6 ± 15.9)",nod gene induction (β-galactosidase activity) ([2]; 5 μM),nod gene induction (β-galactosidase activity) ([2]; 10 μM),nod gene induction (β-galactosidase activity) ([2]; 25 μM),nod gene induction (β-galactosidase activity) ([2]; 50 μM),nod gene induction (β-galactosidase activity) ([2]; 100 μM),nod gene induction (β-galactosidase activity) ([3]; 5 μM),nod gene induction (β-galactosidase activity) ([3]; 10 μM),nod gene induction (β-galactosidase activity) ([3]; 25 μM),nod gene induction (β-galactosidase activity) ([3]; 50 μM),nod gene induction (β-galactosidase activity) ([3]; 100 μM),inhibitory or inducing activity in combinations (β-galactosidase assay) [4],nod gene induction (β-galactosidase activity) ([4]; 5 μM),nod gene induction (β-galactosidase activity) ([4]; 10 μM),nod gene induction (β-galactosidase activity) ([4]; 25 μM),nod gene induction (β-galactosidase activity) ([4]; 50 μM),also measured
"O=C(O)c1ccccc1O [SA, 2-hydroxybenzoic acid]",587 ± 66.6,536.4 ± 40.1,522.4 ± 65.3,476.1 ± 28.4,519.3 ± 43.5,562.2 ± 26.6,411.8 ± 75.3,473 ± 58.3,464.6 ± 36.2,430.7 ± 55.3,404.1 ± 62.5,472.7 ± 54.3,435.8 ± 69.2,434.2 ± 26.3,369.8 ± 114.9,did not show inhibitory or inducing activity,398 ± 13,402 ± 33,414 ± 17,435 ± 26,"nod gene induction (β-galactosidase activity) ([4]; 100 μM): 515 ± 583; induction of nod genes (β-galactosidase activity vs control without inducer), in words [4]: did not show any activity"
"CC/C=C\C/C=C\C/C=C\CCCCCCCC(=O)O [linolenic acid, (Z,Z,Z)-9,12,15-Octadecatrienoic acid]",,,,,,,,,,,,,,,,,,,,,"expression of nod genes (β-galactosidase assay), in words [4]: induced the expression of nod genes; nod gene induction at optimum concentration compared with optimum JA and MeJA concentrations [4]: lower; optimum concentration for nod gene induction [4]: 50 µM"
"CCCCC/C=C\C/C=C\CCCCCCCC(=O)O [linoleic acid, (Z,Z)-9,12-Octadecadienoic acid]",,,,,,,,,,,,,,,,,,,,,"expression of nod genes (β-galactosidase assay), in words [4]: induced the expression of nod genes; nod gene induction at optimum concentration compared with optimum JA and MeJA concentrations [4]: lower; optimum concentration for nod gene induction [4]: 50 µM"
"CC(=O)Oc1ccccc1C(=O)O [ASA, acetylsalicylic acid]",636.5 ± 66.9,563.3 ± 37.9,719.5 ± 75.2,676.6 ± 85.8,384.8 ± 34.4,363.2 ± 34.1,341 ± 21.1,418.8 ± 59.5,376.2 ± 37.2,413.1 ± 85.5,422.6 ± 64.9,425 ± 39.4,479.9 ± 88.6,445.4 ± 99,325.6 ± 58.8,did not show inhibitory or inducing activity,396 ± 14.7,372 ± 16,382 ± 16,464 ± 7,"nod gene induction (β-galactosidase activity) ([4]; 100 μM): 527 ± 36; induction of nod genes (β-galactosidase activity vs control without inducer), in words [4]: did not show any activity"
